{"source": "paper PMC2671563", "about": "(PLoS Biology, 2009)", "key": {"[1]": {"biological_target": "T1, human S100A9 (Homo sapiens, UniProt P06702)", "T1 construct": "made in house; host or cells: Escherichia coli (or purified from granulocytes)", "T1 sequence (P06702 1-114)": "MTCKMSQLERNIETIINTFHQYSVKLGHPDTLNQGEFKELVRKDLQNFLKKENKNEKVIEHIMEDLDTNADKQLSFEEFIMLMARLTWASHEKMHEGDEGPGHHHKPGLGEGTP", "test": "SPR: human S100A9 binding to immobilised ABR-224649 (Q compound), direct binding and displacement", "description": "(§1) The SPR analysis was carried out with the Biacore 3000 system (GE Healthcare). Sensor chips, amine coupling kit, immobilization and running buffers, and regeneration solutions were obtained from GE Healthcare. Working solutions of all reagents used for Biacore analysis were prepared in 0.01 M Hepes, 0.15 M NaCl (pH 7.4) containing 0.005% v/v Surfactant P-20 (HBS-P; GE Healthcare) by buffer exchange on Fast Protein Desalting Micro-Spin Columns from Pierce. ABR-215757 was immobilised onto a CM5 chip through an amino-linker (ABR-224649). […] Activity of ligands after immobilisation was tested by injecting specific antibodies (unpublished data). In some experiments, S100A9 was immobilized either by random amine coupling or with a known orientation (i.e., by sulhydryl group conjugation to the only cysteine in S100A9 at position 3).\n(§2) Binding to the various surfaces was performed by injecting the analyte at a flow rate of 30 μl/min in a physiological buffer (HBS-P) containing 1 mM Ca^2+ and 10 μM Zn^2+ as proposed for S100A8/9 by Robinson et al.. A typical analysis cycle consists of: (1) pumping running buffer for 1 min to obtain a stable baseline; (2) injection of sample for an appropriate period of time (association); (3) pumping running buffer for 2.5 min (dissociation); (4) injection of a short pulse (30 s) of 15 μl 10 mM glycine-HCl (pH 2.0) (regeneration); and (5) pumping running buffer for 2 min (stabilisation after regeneration) at a flow rate of 30 μl/min. […] In one experiment, S100A9 was injected into a buffer with a fixed Ca^2+ concentration (1 mM) and Zn^2+ in the range 0–50 μM. In a second experiment, Ca^2+ was varied from 0–2 mM at a fixed Zn^2+ concentration (10 μM). In subsequent analyses, regeneration was carried out under more mild conditions, i.e., by injecting 30 μl of HBS-P containing 3 mM EDTA (HBS-EP; GE Healthcare) for 60 s, to prolong the lifespan of the chip.\n(§3) Compounds were also injected over the immobilised surfaces in the absence of S100A9 to exclude, or make possible correction for, any direct binding of compound to the surface.\n(§4) Evaluation was carried out using BIAevaluation Software version 3.2 (GE Healthcare). The response at steady-state was obtained by fit of sensorgrams to standard binding models, where appropriate, or calculated as responses at late association or early dissociation phase using the Steady state affinity function in BIAevaluation. Affinity was determined from kinetic analysis (on- and off-rates) or as the apparent affinity after plotting responses versus concentration of analyte in a saturation curve. In the inhibition assay format, the competitor concentration yielding 50% inhibition (IC50) was calculated by fitting data to a one-site competition model in GraphPad Prism."}, "[2]": {"biological_target": "T2, human S100A9 binding to human RAGE (Homo sapiens, UniProt P06702)", "T2 construct": "purchased R&D Systems (RAGE/Fc); S100A9 made in house", "T2 sequence (P06702 1-114)": "T1 sequence (P06702 1-114)", "test": "SPR: inhibition of human S100A9 binding to immobilised human RAGE", "description": "as §1, §2, §3, §4"}, "[3]": {"biological_target": "T3, human S100A9 binding to human TLR4/MD2 (Homo sapiens, UniProt P06702)", "T3 construct": "purchased R&D Systems (TLR4/MD-2 complex); S100A9 made in house", "T3 sequence (P06702 1-114)": "T1 sequence (P06702 1-114)", "test": "SPR: inhibition of human S100A9 binding to immobilised human TLR4/MD2", "description": "as §1, §2, §3, §4"}, "[4]": {"biological_target": "T4, mS100A9 (Mus musculus, UniProt P31725)", "T4 construct": "made in house; host or cells: Escherichia coli (or purified from granulocytes)", "T4 sequence (P31725 1-113)": "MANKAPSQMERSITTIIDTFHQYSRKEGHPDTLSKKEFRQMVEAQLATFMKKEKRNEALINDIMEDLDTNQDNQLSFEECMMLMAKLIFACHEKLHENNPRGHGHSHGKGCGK", "test": "SPR: inhibition of mouse S100A9 binding to immobilised ABR-224649", "conditions": "Table S1", "description": "as §1, §2, §3, §4"}, "[5]": {"biological_target": "T5, mS100A9 and mRAGE/hFc (Mus musculus, UniProt P31725)", "T5 construct": "purchased R&D Systems (mRAGE/Fc); S100A9 made in house", "T5 sequence (P31725 2-113 limits assumed)": "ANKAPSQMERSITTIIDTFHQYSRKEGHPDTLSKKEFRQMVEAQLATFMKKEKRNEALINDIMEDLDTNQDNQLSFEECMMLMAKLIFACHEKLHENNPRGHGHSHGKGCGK", "test": "SPR: inhibition of mouse S100A9 binding to immobilised mouse RAGE", "description": "as §1, §2, §3, §4"}, "[6]": {"biological_target": "T6, mS100A9 and mLPS-Trap (Mus musculus, UniProt P31725)", "T6 sequence (P31725 2-113 limits assumed)": "T5 sequence (P31725 2-113 limits assumed)", "test": "SPR: inhibition of mouse S100A9 binding to immobilised mouse TLR4/MD2 fusion protein (mLPS-Trap)", "description": "as §1, §2, §3, §4"}, "[7]": {"biological_target": "T7, mS100A8/A9 and mRAGE (Mus musculus, UniProt P31725)", "T7 construct": "purchased R&D Systems (mRAGE/Fc); S100A8/A9 made in house", "T7 sequence (P31725 2-113 limits assumed)": "T5 sequence (P31725 2-113 limits assumed)", "T7 sequence (P27005 2-89 partner limits assumed)": "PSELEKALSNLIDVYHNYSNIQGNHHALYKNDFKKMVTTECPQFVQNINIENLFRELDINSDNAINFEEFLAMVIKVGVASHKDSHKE", "test": "SPR: inhibition of mouse S100A8/A9 binding to mouse RAGE", "conditions": "Table S1", "description": "as §1, §2, §3, §4"}, "[8]": {"biological_target": "T8, mS100A8/A9 and mLPS-Trap (Mus musculus, UniProt P31725)", "T8 sequence (P31725 2-113 limits assumed)": "T5 sequence (P31725 2-113 limits assumed)", "test": "SPR: inhibition of mouse S100A8/A9 binding to mLPS-Trap", "conditions": "Table S1; read-out: S100A8-9 binding IC50, mS100A8/A9 TLR4", "description": "as §1, §2, §3, §4"}, "[9]": {"test_system": "aEAE development in SLJ/N mice", "test": "acute experimental autoimmune encephalomyelitis (aEAE) in mice", "type": "in vivo, mouse", "conditions": "Mus musculus, read-out: aEAE Inhibition ED50", "from_the_text": "A training set of five quinoline derivatives with structural diversification performed at position 5 of the quinoline ring system was used for the SAR. PCA was used to uncover any relationship between the binding activities of the quinoline derivatives at the S100 proteins and the inhibitory effect of these derivatives in the aEAE model. PLS was then used to model the relationship between the physiochemical descriptors used to characterize the compounds and their biological responses. […] All variables were mean centred and scaled to unit variance."}, "[10]": {"test_system": "serum TNFα after LPS challenge", "test": "LPS-induced systemic TNFα production in C57BL/6 mice", "type": "in vivo, mouse", "description": "TNFα induction after intraperitoneal challenge with LPS was performed essentially as described. In brief, mice were pretreated for 2 h with 10 mg/kg ABR-215757 or PBS, after which 3 or 6 μg of LPS was injected intraperitoneally. After an additional 90 min, the animals were sacrificed, and the level of TNFα in blood was determined using commercial TNFα antibodies (eBioscience; http://www.ebioscience.com)."}, "[11]": {"biological_target": "T9, human RAGE (Homo sapiens, UniProt Q15109)", "T9 construct": "purchased R&D Systems", "T9 sequence (Q15109 23-342 limits assumed)": "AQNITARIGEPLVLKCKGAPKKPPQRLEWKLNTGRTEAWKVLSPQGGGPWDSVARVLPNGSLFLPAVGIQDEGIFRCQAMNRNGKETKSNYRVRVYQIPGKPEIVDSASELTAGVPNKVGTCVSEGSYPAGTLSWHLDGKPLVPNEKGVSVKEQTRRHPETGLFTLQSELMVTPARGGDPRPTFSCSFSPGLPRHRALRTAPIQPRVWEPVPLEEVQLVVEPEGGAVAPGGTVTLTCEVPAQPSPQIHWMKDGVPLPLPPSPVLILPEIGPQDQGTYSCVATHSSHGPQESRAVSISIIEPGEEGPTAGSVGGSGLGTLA", "test": "SPR: direct binding to immobilised human RAGE", "conditions": "unpublished data", "description": "as §1, with “3). […]” for “3).”\nas §4, with “In the inhibition assay format, the competitor concentration yielding 50% inhibition (IC50) was calculated by fitting data to a one-site competition model in GraphPad Prism.” left out"}, "[12]": {"biological_target": "T10, human TLR4/MD2 (Homo sapiens, UniProt O00206+Q9Y6Y9)", "T10 construct": "purchased R&D Systems", "T10 sequence (O00206 24-631 limits assumed)": "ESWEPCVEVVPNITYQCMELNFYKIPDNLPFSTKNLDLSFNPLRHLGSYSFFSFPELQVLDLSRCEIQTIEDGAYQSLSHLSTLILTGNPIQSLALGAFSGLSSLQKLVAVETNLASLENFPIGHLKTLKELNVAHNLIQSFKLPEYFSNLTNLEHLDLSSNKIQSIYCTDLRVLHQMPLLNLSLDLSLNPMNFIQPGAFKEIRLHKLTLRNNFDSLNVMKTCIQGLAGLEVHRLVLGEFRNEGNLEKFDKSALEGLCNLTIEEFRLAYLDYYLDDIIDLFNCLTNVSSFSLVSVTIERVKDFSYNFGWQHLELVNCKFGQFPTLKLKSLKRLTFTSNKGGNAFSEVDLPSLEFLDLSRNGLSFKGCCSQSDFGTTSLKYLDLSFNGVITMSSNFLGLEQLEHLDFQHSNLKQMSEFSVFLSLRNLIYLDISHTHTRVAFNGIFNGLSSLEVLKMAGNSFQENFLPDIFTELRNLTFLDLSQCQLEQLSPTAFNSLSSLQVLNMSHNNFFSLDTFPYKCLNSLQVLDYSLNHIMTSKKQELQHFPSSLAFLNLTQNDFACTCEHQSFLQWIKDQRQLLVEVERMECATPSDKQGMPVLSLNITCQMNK", "T10 sequence (Q9Y6Y9 19-160)": "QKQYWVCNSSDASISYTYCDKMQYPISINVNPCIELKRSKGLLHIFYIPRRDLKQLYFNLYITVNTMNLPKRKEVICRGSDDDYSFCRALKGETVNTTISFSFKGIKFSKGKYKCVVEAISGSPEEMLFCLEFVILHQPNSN", "test": "SPR: direct binding to immobilised human TLR4/MD2", "conditions": "unpublished data", "description": "as §1, with “3). […]” for “3).”\nas §4, with “In the inhibition assay format, the competitor concentration yielding 50% inhibition (IC50) was calculated by fitting data to a one-site competition model in GraphPad Prism.” left out"}, "[13]": {"biological_target": "T11, human S100A8 (Homo sapiens, UniProt P05109)", "T11 construct": "made in house; host or cells: Escherichia coli or granulocytes", "T11 sequence (P05109 1-93)": "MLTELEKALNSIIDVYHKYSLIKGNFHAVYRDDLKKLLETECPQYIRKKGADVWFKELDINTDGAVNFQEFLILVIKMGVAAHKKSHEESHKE", "test": "SPR: human S100A8 binding to immobilised Q compound", "conditions": "100 nM protein", "description": "as §1\nBinding to the various surfaces was performed by injecting the analyte at a flow rate of 30 μl/min in a physiological buffer (HBS-P) containing 1 mM Ca^2+ and 10 μM Zn^2+ as proposed for S100A8/9 by Robinson et al.. […]"}}, "note": "Where two headings read alike, the source gives them in different places.", "data": [{"smiles": "CCc1cccc2c1c(O)c(C(=O)N(CC)c1ccccc1)c(=O)n2C", "note": "[ABR-215757]", "values": [{"measurement": "binding of recombinant S100A9 to Q compound coupled to solid phase", "setting": "[1]", "result": "bound strongly"}, {"measurement": "IC50", "setting": "[1]; 100 nM S100A9, competitor 7.81–1,000 μM, one-site competition model, 1 mM Ca2+ and 10 μM Zn2+", "result": 37, "unit": "µM"}, {"measurement": "IC50", "setting": "[2]; S100A9 binding IC50, hS100A9 RAGE, Table S1", "result": 60.5, "unit": "µM"}, {"measurement": "IC50", "setting": "[2]; competitor concentration yielding 50% inhibition of S100A9 binding to RAGE surface, 100 nM S100A9, competitor 7.81–1,000 μM, single experiment Figure 2C", "result": 26, "unit": "µM"}, {"measurement": "IC50", "setting": "[3]; 100 nM S100A9, competitor 7.81 to 1,000 μM, single experiment Figure 3C, read-out: IC50, inhibition of S100A9 binding to immobilised hTLR4/MD2", "result": 23, "unit": "µM"}, {"measurement": "IC50", "setting": "[3]; Table S1, read-out: S100A9 binding IC50, hS100A9 TLR4", "result": 59.7, "unit": "µM"}, {"measurement": "IC50", "setting": "[4]", "result": 940, "unit": "µM"}, {"measurement": "competition of mouse S100A9 interaction with solid-phase mouse RAGE", "setting": "[5]; 100 nM mouse S100A9", "result": "competed"}, {"measurement": "IC50", "setting": "[5]; Table S1", "result": 311, "unit": "µM"}, {"measurement": "competition of mouse S100A9 interaction with solid-phase mouse TLR4/MD2", "setting": "[6]; 100 nM mouse S100A9", "result": "competed"}, {"measurement": "IC50", "setting": "[6]; Table S1", "result": 698, "unit": "µM"}, {"measurement": "IC50", "setting": "[7]", "result": 334, "unit": "µM"}, {"measurement": "IC50", "setting": "[8]", "result": 334, "unit": "µM"}, {"measurement": "ED50", "setting": "[9]", "result": 0.04, "unit": "mg/kg"}, {"measurement": "TNFα production after LPS challenge", "setting": "[10]; 3 μg LPS i.p., treatment 2 h before (ABR-215757 10 mg/kg)", "result": "significantly inhibited"}, {"measurement": "TNFα production after LPS challenge", "setting": "[10]; 6 μg LPS i.p., 10 mg/kg 2 h before", "result": "significantly inhibited"}, {"measurement": "direct binding to RAGE", "setting": "[11]", "result": "not observed"}, {"measurement": "direct binding to hTLR4/MD2", "setting": "[12]", "result": "negligible"}, {"measurement": "binding of S100A8 to immobilised Q compound", "setting": "[13]", "result": "close to baseline levels"}]}]}
